Data taken from US20260285850A1, “SUBSTITUTED OXAZOLIDINONES AND IMIDAZOLINONES AS HERBICIDES” (FMC CORPORATION, priority 2023, published 2026).

Experiments:
Type in all cases: in vivo
[1] = tested on: barnyardgrass (Echinochloa crus-galli); assay: Test A preemergence soil spray, visual injury rating 0-100; conditions: 10 days
In short: (§1)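 Compound in a non-phytotoxic, surfactant-containing solvent is applied either as a directed soil spray before seedlings emerge or onto emerged plants 2-10 cm tall; pots hold a loam-sand blend. Plants grow 10 days under greenhouse conditions and are rated by eye against untreated controls (0 no effect, 100 complete control).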

[2] = tested on: green foxtail (Setaria viridis); assay: as above; conditions: 10 days
In short: as §1

[3] = tested on: palmer (palmer amaranth, palmer pigweed, Amaranthus palmeri); assay: as above; conditions: 10 days
In short: as §1

[4] = tested on: ryegrass, Italian (italian ryegrass, Lolium multiflorum); assay: as above; conditions: 10 days
In short: as §1

[5] = tested on: wheat (Triticum aestivum); assay: as above; conditions: 10 days
In short: as §1

[6] = tested on: blackgrass (Alopecurus myosuroides); assay: as above; conditions: 10 days
In short: as §1

kochia (Bassia scoparia) [7] = assay: as above; conditions: 10 days
In short: as §1

corn (Zea mays) [8] = assay: as above; conditions: 10 days
In short: as §1

[9] = tested on: ragweed (common ragweed, Ambrosia artemisiifolia); assay: as above; conditions: 10 days
In short: as §1

soybean (Glycine max) [10] = assay: as above; conditions: 10 days
In short: as §1

[11] = tested on: oat, wild (wild oat, Avena fatua); assay: as above; conditions: 10 days
In short: as §1

[12] = tested on: barnyardgrass (Echinochloa crus-galli); assay: Test A postemergence application, visual injury rating 0-100
In short: as §1

[13] = tested on: green foxtail (Setaria viridis); assay: as above
In short: as §1

[14] = tested on: galium (catchweed bedstraw, Galium aparine); assay: as above
In short: as §1

[15] = tested on: palmer (palmer amaranth, palmer pigweed, Amaranthus palmeri); assay: as above
In short: as §1

[16] = tested on: horseweed (Erigeron canadensis); assay: as above
In short: as §1

[17] = tested on: ryegrass, Italian (italian ryegrass, Lolium multiflorum); assay: as above
In short: as §1

[18] = tested on: wheat (Triticum aestivum); assay: as above
In short: as §1

[19] = tested on: blackgrass (Alopecurus myosuroides); assay: as above
In short: as §1

kochia (Bassia scoparia) [20] = assay: as above
In short: as §1

corn (Zea mays) [21] = assay: as above
In short: as §1

[22] = tested on: ragweed (common ragweed, Ambrosia artemisiifolia); assay: as above
In short: as §1

soybean (Glycine max) [23] = assay: as above
In short: as §1

[24] = tested on: oat, wild (wild oat, Avena fatua); assay: as above
In short: as §1

[25] = tested on: sedge, umbrella (small-flower umbrella sedge, Cyperus difformis); assay: Test B flooded paddy test, visual plant response rating 0-100; conditions: 250 g ai/ha, Flood, applied to paddy water, evaluated after 13 days
In short: (§2)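 In this flooded assay, 2-leaf seedlings received compound through the water layer, kept at 3 cm over the soil. Plants were held 13 days in a greenhouse and then visually compared with control pots.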

[26] = tested on: ducksalad (Heteranthera limosa); assay: as above; conditions: 250 g ai/ha, Flood, applied to paddy water, evaluated after 13 days
In short: as §2

rice (Oryza sativa) = assay: as above; conditions: 250 g ai/ha, Flood, applied to paddy water, evaluated after 13 days
In short: as §2

[27] = tested on: barnyardgrass (Echinochloa crusgalli); assay: as above; conditions: 250 g ai/ha, Flood, applied to paddy water, evaluated after 13 days
In short: as §2

[28] = 62 g ai/ha, 0 = no effect, 100 = complete control
[29] = 62 g ai/ha, postemergence, 10 days, 0 = no effect, 100 = complete control
[30] = Postemergence, 16 g ai/ha, greenhouse 10 days, 0 no effect, 100 complete control

For CC1(C(=O)NC2CC=C(C(=O)NS(C)(=O)=O)C2)CN(c2cc(F)cc(F)c2)C(=O)O1 (racemic) [Compound 103], the “Barnyardgrass plant response rating” value ([1]; 16 g ai/ha, 0 to 100 scale) was 0, the “Barnyardgrass plant response rating (0-100)” value [1, 28] was 10 and the “Foxtail, Green plant response rating” value ([2]; 16 g ai/ha, 0 to 100 scale) was 20. For the same molecule, the “Foxtail, Green plant response rating (0-100)” value [2, 28] was 40, the “Pigweed, Palmer plant response rating” value ([3]; 16 g ai/ha, 0 to 100 scale) was 0 and the “Pigweed, Palmer plant response rating (0-100)” value [3, 28] was 80. For the same molecule, the “Ryegrass, Italian plant response rating” value ([4]; 16 g ai/ha, 0 to 100 scale) was 0, the “Ryegrass, Italian plant response rating (0-100)” value [4, 28] was 40 and the “Wheat plant response rating” value ([5]; 16 g ai/ha, 0 to 100 scale) was 0. The “Wheat plant response rating (0-100)” value [5, 28] was 60, the “Blackgrass plant response rating” value ([6]; 16 g ai/ha, 0 to 100 scale) was 0 and the “Blackgrass plant response rating (0-100)” value [6, 28] was 0. For the same molecule, the “Kochia plant response rating” value (kochia (Bassia scoparia) [7]; 16 g ai/ha, 0 to 100 scale) was 0, the “Kochia plant response rating (0-100)” value (kochia (Bassia scoparia) [7]; [28]) was 50 and the “Corn plant response rating” value (corn (Zea mays) [8]; 16 g ai/ha, 0 to 100 scale) was 0. For the same molecule, the “Corn plant response rating (0-100)” value (corn (Zea mays) [8]; [28]) was 10, the “Ragweed plant response rating” value ([9]; 16 g ai/ha, 0 to 100 scale) was 0 and the “Ragweed plant response rating (0-100)” value [9, 28] was 0. For the same molecule, the “Soybean plant response rating” value (soybean (Glycine max) [10]; 16 g ai/ha, 0 to 100 scale) was 20, the “Soybean plant response rating (0-100)” value (soybean (Glycine max) [10]; [28]) was 20 and the “Oat, Wild plant response rating” value ([11]; 16 g ai/ha, 0 to 100 scale) was 0. The “Oat, Wild plant response rating (0-100)” value [11, 28] was 0, the “Barnyardgrass plant response rating (0-100)” value [12, 29] was 100 and the “Barnyardgrass plant response rating (0 to 100 scale)” value [12, 30] was 50. For the same molecule, the “Foxtail, Green plant response rating (0-100)” value [13, 29] was 90, the “Foxtail, Green plant response rating (0 to 100 scale)” value [13, 30] was 0 and the “Galium plant response rating (0-100)” value [14, 29] was 60. For the same molecule, the “Galium plant response rating (0 to 100 scale)” value [14, 30] was 10, the “Pigweed, Palmer plant response rating (0-100)” value [15, 29] was 70 and the “Pigweed, Palmer plant response rating (0 to 100 scale)” value [15, 30] was 60. For the same molecule, the “Horseweed plant response rating (0-100)” value [16, 29] was 0, the “Horseweed plant response rating (0 to 100 scale)” value [16, 30] was 0 and the “Ryegrass, Italian plant response rating (0-100)” value [17, 29] was 30. For the same molecule, the “Ryegrass, Italian plant response rating (0 to 100 scale)” value [17, 30] was 0, the “Wheat plant response rating (0-100)” value [18, 29] was 70 and the “Wheat plant response rating (0 to 100 scale)” value [18, 30] was 20. The “Blackgrass plant response rating (0-100)” value [19, 29] was 40, the “Blackgrass plant response rating (0 to 100 scale)” value [19, 30] was 0 and the “Kochia plant response rating (0-100)” value (kochia (Bassia scoparia) [20]; [29]) was 80. For the same molecule, the “Kochia plant response rating (0 to 100 scale)” value (kochia (Bassia scoparia) [20]; [30]) was 20, the “Corn plant response rating (0-100)” value (corn (Zea mays) [21]; [29]) was 80 and the “Corn plant response rating (0 to 100 scale)” value (corn (Zea mays) [21]; [30]) was 10. For the same molecule, the “Ragweed plant response rating (0-100)” value [22, 29] was 30, the “Ragweed plant response rating (0 to 100 scale)” value [22, 30] was 10 and the “Soybean plant response rating (0-100)” value (soybean (Glycine max) [23]; [29]) was 40. For the same molecule, the “Soybean plant response rating (0 to 100 scale)” value (soybean (Glycine max) [23]; [30]) was 10, the “Oat, Wild plant response rating (0-100)” value [24, 29] was 20 and the “Oat, Wild plant response rating (0 to 100 scale)” value [24, 30] was 0. The “Plant response rating, Sedge, Umbrella (0 to 100 scale, 0 is no effect and 100 is complete control)” value [25] was 0, the “Plant response rating, Ducksalad (0 to 100 scale, 0 is no effect and 100 is complete control)” value [26] was 0 and the “Plant response rating, Rice (0 to 100 scale, 0 is no effect and 100 is complete control)” value (rice (Oryza sativa)) was 0. The “Plant response rating, Barnyardgrass (0 to 100 scale, 0 is no effect and 100 is complete control)” value [27] was 0.
